These results are taken from US7053175B1, “Synthetic peptides useful in biological assays for detecting infections caused by group O HIV-1 viruses” (Bio-Rad Pasteur, priority 1997, dated 2006).

The test system of the assay is serum samples from patients infected with group O HIV-1 retroviruses. Put plainly: Immunoenzymatic test: Test No. 2 (immunoreactivity with diluted sera). The following applies: for Number of samples: sera of Table V; for Number of samples / ABSORBANCE (OD): solid phase peptide 2 μg/ml; for ABSORBANCE (OD): cyclized; for immunoreactivity compared with the reference peptides (in words): summary of Tables V and VI. It is filed as binding, human. An excerpt: The serum samples from patients infected with group O HIV-1 retroviruses were obtained by the Yaounde Pasteur Centre in Cameroon and were serotyped group O according to the serological algorithm described in AIDS (1977), 11, pp. 445-453. A genotyped sample (Maryland) is obtained from the United States. These samples were previously diluted in negative human serum at the dilutions given in Table V, in order to have a sufficient volume for the different immunoreactivity tests.
The synthetic peptides used were dissolved in water at a concentration of 1 mg/ml (stock solution). For the solid phase sensitization step (“coating”), the procedure was carried out as described for Example 2.
The serum samples were diluted 1/5 with a skimmed milk solution (citrate buffer supplemented with 0.01% of phenol red, 0.25% of chloroform and 0.25% of Kathon®), deposited in the wells of plates and incubated for 30 min at 40° C.
After washing with a Tris-NaCl buffer solution pH 7.4 containing 0.1% of Tween® 20 and 0.001% of sodium merthiolate, 100 μl of a solution of conjugate consisting of horseradish peroxidase-labelled anti-human IgG and IgM goat antibodies, containing as preservative 0.01% of sodium merthiolate, in solution in a citrate buffer solution supplemented with 30% glycerol and 25% normal foetal calf serum, were added to each well of the plates and then they were incubated for 30 min at 40° C.
After washing with a Tris-NaCl buffer solution pH 7.4 containing 0.1% of Tween® 20 and 0.001% of sodium merthiolate, the colour was developed as described in Example 2.
The relative absorbance (OD) (A490-A620) read in each well is proportional to the immunoreactivity of each peptide. It indicates the ability of each peptide to react with the biological sample with which the test is carried out.
The reactivity of the peptides of the invention, peptides No. 10 (14B), No. 11 (18B), No. 12 (19B), No. 14 (21B), No. 15 (22B), No. 16 (23B) all in cyclized form, was compared with that of three homologous synthetic peptides having, as sequence, a portion of the natural sequence of the envelope (env) of a group O HIV-1 retrovirus. These peptides are two peptides derived from the VAU isolate—the peptide VAU 22 AA and the peptide VAU 35 AA—and the peptide MVP 5180 (designated “MVP 5180” in Table V). The peptides VAU 22 AA and VAU 35 AA (whose structure is indicated in Example 2) and the peptide MVP 5180 comprise an immunodominant epitope of gp41.
All these peptides were used in cyclized form. The sequence of the MVP 5180 peptide is the following:
For each peptide tested, the samples were arranged into four classes (a, b, c and d) corresponding to various levels of relative absorbance read at the wavelengths A492-A620: • for a: OD<0.100, • for b: 0.100<OD<0.500, • for c: 0.500<OD<1.000, • for d: OD>1.000, thus making it possible to evaluate the degree of immunoreactivity of the peptides.

No end group written: not given here.

For “RALETLLNQQRLLNSWGCKGRLVCYTSV [PEPTIDE No. 15 (22B)]”, the “immunoreactivity compared with the reference peptides (in words)” value was “most immunoreactive”. Also, under “CLASS A (a: OD<0.100)”, the Number of samples was determined as 0. In addition, the Number of samples (CLASS B (b: 0.100<OD<0.500)) amounted to 2. This sequence also had a Number of samples (CLASS C (c: 0.500<OD<1.000)) of 4. The sequence further had a Number of samples (CLASS D (d: OD>1.000)) of 8. Besides, under “serum 258 OUDI at 1/100”, the “ABSORBANCE (OD)” value is reported as 1.184. The “ABSORBANCE (OD)” value (serum 625 at 1/50) stood at 2.122. In addition, the “ABSORBANCE (OD)” value (serum 3600 at 1/100) stood at 0.801. The “ABSORBANCE (OD)” value (serum 3613 at ¼00) is 1.627. In addition, the “ABSORBANCE (OD)” value (serum 3653 at 1/10) is on record as 0.380. For the same sequence, for the setting “serum 4280 at 1/50”, the “ABSORBANCE (OD)” value worked out at 0.689. Also, the “ABSORBANCE (OD)” value (serum 6111 at 1/100) is given as 1.207. Besides, under “serum DJOU at 1/100”, the “ABSORBANCE (OD)” value is recorded as 2.088. Also, the “ABSORBANCE (OD)” value (serum DO15 at 1/100) is recorded as 3.693. In addition, the “ABSORBANCE (OD)” value (serum MBASSI at 1/100) amounted to 2.010. For the same sequence, the “ABSORBANCE (OD)” value (serum Maryland at ¼00) came to 0.844. For the same sequence, for the setting “serum NGO at 1/50”, the “ABSORBANCE (OD)” value is given as 0.315. Moreover, the “ABSORBANCE (OD)” value (serum NJEM at 1/100) came to 0.939. Moreover, the “ABSORBANCE (OD)” value (serum WANG at 1/50) was found to be 2.680.
With “RLNSWGCKGRLVCYTSV [PEPTIDE No. 16 (23B)]”, the “immunoreactivity compared with the reference peptides (in words)” value was “most immunoreactive”. Where the note is “CLASS A (a: OD<0.100)”, this sequence yielded a Number of samples of 2. This sequence registered a Number of samples (CLASS B (b: 0.100<OD<0.500)) of 2. This sequence had a Number of samples (CLASS C (c: 0.500<OD<1.000)) of 1. This sequence gave a Number of samples (CLASS D (d: OD>1.000)) of 9. Also, the “ABSORBANCE (OD)” value (serum 258 OUDI at 1/100) was found to be 1.692. For the same sequence, the “ABSORBANCE (OD)” value (serum 625 at 1/50) is given as 1.791. In addition, the “ABSORBANCE (OD)” value (serum 3600 at 1/100) was determined as 0.933. Moreover, the “ABSORBANCE (OD)” value (serum 3613 at ¼00) amounted to 1.679. Under “serum 3653 at 1/10”, the “ABSORBANCE (OD)” value is 0.406. Further, the “ABSORBANCE (OD)” value (serum 4280 at 1/50) was determined as 0.033. Moreover, for the setting “serum 6111 at 1/100”, the “ABSORBANCE (OD)” value is 1.009. Besides, for the setting “serum DJOU at 1/100”, the “ABSORBANCE (OD)” value turned out to be 2.166. Moreover, the “ABSORBANCE (OD)” value (serum DO15 at 1/100) stood at 3.038. Further, the “ABSORBANCE (OD)” value (serum MBASSI at 1/100) was determined as 2.683. In addition, the “ABSORBANCE (OD)” value (serum Maryland at ¼00) is 1.229. In addition, where the note is “serum NGO at 1/50”, the “ABSORBANCE (OD)” value is on record as 0.110. Further, the “ABSORBANCE (OD)” value (serum NJEM at 1/100) worked out at 0.025. In addition, for the setting “serum WANG at 1/50”, the “ABSORBANCE (OD)” value was found to be 1.290.
“RLQALETLIQNQQRLNLWGCKGKLICYTSVKWNTS (cysteine pairing not given here) [MVP 5180, reference compound]” had a Number of samples (CLASS A (a: OD<0.100)) of 1, a Number of samples (CLASS B (b: 0.100<OD<0.500)) of 12, a Number of samples (CLASS C (c: 0.500<OD<1.000)) of 1 and a Number of samples (CLASS D (d: OD>1.000)) of 0. For the same sequence, the “ABSORBANCE (OD)” value runs as follows: (serum 258 OUDI at 1/100) 0.116; (serum 625 at 1/50) 0.202; (serum 3600 at 1/100) 0.206; (serum 3613 at ¼00) 0.478; (serum 3653 at 1/10) 0.401; (serum 4280 at 1/50) 0.382. Further, the “ABSORBANCE (OD)” value by setting is: (serum 6111 at 1/100) 0.226; (serum DJOU at 1/100) 0.203; (serum DO15 at 1/100) 0.673; (serum MBASSI at 1/100) 0.248; (serum Maryland at ¼00) 0.241; (serum NGO at 1/50) 0.184. Besides, the “ABSORBANCE (OD)” value runs as follows: (serum NJEM at 1/100) 0.146; (serum WANG at 1/50) 0.075.
